Reference: patent publication US7507727B2, “Substituted quinobenzoxazine analogs and methods of using thereof” (Cylene Pharmaceuticals, Inc., priority 2003, dated 2009)
≈ marks a conversion by molar mass, not a printed value.

Assays:
[1] = Metabolic stability and metabolite profiling in hepatocytes; assay type: in vitro ADME, human
Description: Metabolic Stability Assay and Metabolite Profiling. A human hepatocyte assay to profile metabolites was carried out using commercially available kits and following standard procedures. The metabolic stability of CX-3543 with human hepatocytes was evaluated following incubation at 0, 30, 60, and 120 minutes at 1 and 20 μM. Consumption of the parent compound and the appearance of metabolites were carefully monitored, and mass spectrometer product ion scans were conducted on potential metabolite peaks to define the metabolite fragmentation pattern.
The protocol is designed to determine the stability of a new chemical entity in the presence of hepatocytes (human, rat, dog, monkey) in in vitro incubations. The test article will be incubated with hepatocytes and suitable media for various times at 37° C. The reaction mixtures will be extracted and analyzed by LC/MS/MS for the parent compound and anticipated metabolites. If applicable, a half-life will be calculated for the consumption of the test article. Metabolism controls will be run for comparison of the half-life values with that obtained for the test article. The metabolism controls are tolbutamide, desipramine and naloxone, and these compounds have defined pharmacokinetics corresponding to low, moderate and high in vivo clearance values, respectively.
Metabolic Stability Study. Generally, solutions of the test compounds are prepared along with a cocktail solution of metabolism controls that are intended to provide a reference for enzyme activity. The reactions are initiated by combining these pre-warmed solutions with hepatocyte suspensions and with a media control solution. Control zero samples are taken from these reactions immediately after initiation. Additional samples are taken at appropriate time points. Each sample is immediately placed in a terminating solution (acidified acetonitrile containing internal standard) to stop the reaction. Hepatocyte blank suspensions and test compound standard solutions are prepared.
Samples and standards for the test compound as well as appropriate blanks are subjected to a custom sample preparation procedure and analyzed for the parent and/or metabolite form of the test compound using high-performance liquid chromatography coupled with tandem mass spectrometry. Samples and standards for the metabolism controls are subjected to the analytical method described herein. Where Krebs Henseleit buffer is added, the buffer is bubbled with 5% CO2 in air at room temperature for 5-10 minutes before adding BSA to a final concentration of 0.2% w/v. The volume of terminating solution and the method of sample preparation will be determined for the test article during method development.
Test Article/Media Solution. A solution of the test article will be prepared by adding an appropriate volume of the stock solution to 0.2% BSA in Krebs Henseleit buffer equilibrated with 5% CO2 in air. The final concentration will be 20 μM and the final assay concentration at initiation of the reactions will be […].
Metabolism Controls/Media Solution. A solution of tolbutamide, desipramine and naloxone will be prepared by adding an appropriate volume of each 10 mM stock solution to 0.2% BSA in Krebs Henseleit buffer equilibrated with 5% CO2 in air. […]
Hepatocyte Suspension Solution. […] During the final step of the procedure, the viability of the cells will be determined using the method of trypan blue exclusion. […]

p53 (total) = p53 (total) ELISA in HCT-116 cells; assay type: cell-based; conditions: 24 hr, 1-5 uM
Description: The protocol for this assay is described as follows. On Day 1, cells were seeded at 2×10^6 cells/10 cm dish/10 mL medium. On day two, cells were treated as follows: control=0.05% DMSO (5 μl DMSO stock/10 ml medium); 1 μM CX3543 (1 μl Stock (10 mM)/10 ml medium); 2 μM CX3543 (2 μl Stock (10 mM)/10 ml medium); 3 μM CX3543 (3 μl Stock (10 mM)/10 ml medium); 4 μM CX3543 (4 μl Stock (10 mM)/10 ml medium) and 5 μM CX3543 (5 μl Stock (10 mM)/10 ml medium).
On Day 3, cells were harvested and attached and floating cells were collected. Cells were washed twice with PBS, counted and collected at 4×10^6 cells/sample. The cell pellet was frozen at −80° C. until further use. […]
Test Procedure. […] After washing, the plate is inverted and tapped dry on absorbance tissue. […]
Wash wells with 400 μl working wash buffer four times. […] After washing, the plate is inverted and tapped try on absorbance tissue. […] After washing, the plate is inverted and tapped try on absorbance tissue. […] Read the plate at A450 nm by setting chromogen blank (=100 μl TMB+100 μl Stop soln) as blank. Read absorbance within 2 hours of assay completion.

Formulated solubility = assay type: physicochemical

CN1CCCC1CCNC(=O)c1cn2c3c(c(N4CCC(c5cnccn5)C4)c(F)cc3c1=O)Oc1cc3ccccc3cc1-2 (stereo not shown) [CX-3543]
metabolites in the hepatocyte incubation medium ([1]; 0 vs 120 min): no single major metabolite is present
consumption by hepatocytes ([1]; 1 uM): very slowly
original drug remaining ([1]; at or below 12 uM): about 60%
consumption by hepatocytes ([1]; concentrations from about 12-20 uM): moderately to quickly
Km ([1]; human, human hepatocytes (suspension), read-out: apparent Km of consumption by hepatocytes): > 20 µM
population of the protein p53 (total) (p53 (total)): enhanced
solubility (Formulated solubility): ~20 mg/mL (≈ 33.1 mM)
